The subject of one data set is Homo sapiens. Nature of the data set: In vivo agonist activity at human TRPM8 in trained human subjects assessed as concentration required to deliver cooling sensation equivalent to 45 uM WS-3 by measuring cooling intensity. The data set is classed as functional.
The target of data set [1] is T1, Transient receptor potential cation channel subfamily M member 8 (Homo sapiens, UniProt Q7Z2W7). Nature of the data set: Agonist activity at human TRPM8 expressed in HEK293 cells assessed as increase in intracellular calcium level after 15 mins by Fluo-3-AM dye-based fluorescence assay. The data set is classed as cell-based. The note with it: read-out: EC50. (In general: A change in cytosolic calcium serves as a functional read-out for many receptors and channels.)
Target sequence in this assay (Q7Z2W7 whole entry): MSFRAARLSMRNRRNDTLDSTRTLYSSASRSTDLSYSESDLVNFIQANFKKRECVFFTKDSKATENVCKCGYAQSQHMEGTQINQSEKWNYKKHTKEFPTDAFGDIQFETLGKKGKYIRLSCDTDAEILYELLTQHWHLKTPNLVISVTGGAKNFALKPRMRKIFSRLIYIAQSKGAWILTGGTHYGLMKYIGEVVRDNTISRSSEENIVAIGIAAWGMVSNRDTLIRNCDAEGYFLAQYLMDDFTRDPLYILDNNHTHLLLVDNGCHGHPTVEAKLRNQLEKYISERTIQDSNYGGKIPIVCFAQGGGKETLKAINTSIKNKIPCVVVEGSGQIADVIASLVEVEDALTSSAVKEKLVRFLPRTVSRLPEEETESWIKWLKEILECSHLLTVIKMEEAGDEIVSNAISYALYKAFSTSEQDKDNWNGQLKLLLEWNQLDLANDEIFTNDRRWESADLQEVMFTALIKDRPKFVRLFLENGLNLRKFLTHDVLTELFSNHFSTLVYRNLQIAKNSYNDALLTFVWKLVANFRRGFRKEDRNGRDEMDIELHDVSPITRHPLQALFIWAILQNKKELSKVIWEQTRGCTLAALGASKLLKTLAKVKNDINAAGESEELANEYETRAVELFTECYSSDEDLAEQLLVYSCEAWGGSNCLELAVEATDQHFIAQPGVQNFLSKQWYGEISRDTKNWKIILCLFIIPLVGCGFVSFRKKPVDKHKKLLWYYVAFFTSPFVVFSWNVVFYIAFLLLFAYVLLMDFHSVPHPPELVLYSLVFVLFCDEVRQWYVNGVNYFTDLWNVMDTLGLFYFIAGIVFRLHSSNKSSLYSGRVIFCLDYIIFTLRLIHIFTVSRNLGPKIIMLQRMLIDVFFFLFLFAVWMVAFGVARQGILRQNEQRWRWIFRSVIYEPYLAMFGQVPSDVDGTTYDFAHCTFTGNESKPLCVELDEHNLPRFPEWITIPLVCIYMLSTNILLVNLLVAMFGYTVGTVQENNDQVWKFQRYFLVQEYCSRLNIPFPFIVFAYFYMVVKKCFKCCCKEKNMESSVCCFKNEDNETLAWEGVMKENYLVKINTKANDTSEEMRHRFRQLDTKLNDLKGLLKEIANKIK

Data set [2] concerns the target T1, Transient receptor potential cation channel subfamily M member 8. Nature of the data set: Potency index, ratio of WS-3 EC50 to compound EC50 for human TRPM8 receptor.
Target sequence in this assay (Q7Z2W7 whole entry, looked up): as the sequence (Q7Z2W7 whole entry) above
Data set [3] is described as follows: Thermodynamic solubility of the compound in pH 7.1 phosphoric buffer. Type of data set: physicochemical. The note with it: read-out: Therm_solubility.
Data set [4] in a line: Permeability of the compound assessed as drug transport by PAMPA. The data set is classed as physicochemical.

≈ marks a conversion by molar mass, not a printed value. Where only a bound is given, the exact number is not on record here.

Take `Cc1ccc(OCC(=O)N(Cc2cccs2)c2ccccn2)cc1`: in the data set on Homo sapiens, the Activity stood at 15 µM. Besides, in data set [1], the EC50 (commonly the concentration at which the effect is half-maximal) was determined as 200 nM. The Ratio EC50 in data set [2] was 25.
For `CCN(Cc1cccs1)C(=O)COc1ccc(C)cc1O`, in that order: 3 µM, 8 nM and 650.
`Cc1ccc(/C=C/C(=O)N(Cc2cccs2)c2ccn[nH]2)cc1`: the Activity in the data set on Homo sapiens was 3 µM. In addition, the solubility thermodynamic in data set [3] stood at 3.7 µM (≈ 1.2 µg/mL). Besides, in data set [1], the EC50 is 0.004 nM. Further, the Drug transport in data set [4] is recorded as 5%. In data set [2], the Ratio EC50 is over 1e+06.
Consider `Cc1ccc(OCC(=O)N(Cc2cccs2)C2CC2)cc1`, for which, in the data set with Homo sapiens, the Activity was found to be 5 µM. Further, the EC50 in data set [1] turned out to be 8 nM. Besides, the Ratio EC50 in data set [2] came to 577.
On to `CCN(Cc1cccs1)C(=O)CCc1ccc(C)cc1`, for which the Activity with Homo sapiens was over 5 µM. In addition, the EC50 in data set [1] stood at 93 nM. In addition, the Ratio EC50 in data set [2] is 40.
For `CCN(Cc1cccs1)C(=O)COc1ccc(OC)cc1`, in that order: 15 µM, 120 nM and 32.
As to `Cc1ccc2oc(C(=O)N(Cc3cccs3)c3ccn[nH]3)cc2c1`, the Activity with Homo sapiens came out at 4 µM. For the same molecule, the EC50 in data set [1] is 40 nM. Moreover, the Ratio EC50 in data set [2] was over 1e+06.
For `Cc1ccc(OCC(=O)N(Cc2cccs2)c2cn[nH]c2)cc1`, in that order: over 5 µM, 1.4 nM and 3820.
In the same order, the values of `CCN(Cc1ccoc1)C(=O)COc1ccc(C)cc1` are 5 µM, 136 nM and 32.
On to `COc1ccc(OCC(=O)N(Cc2cccs2)c2ccn[nH]2)cc1`, for which, in the data set on Homo sapiens, the Activity was 5 µM. Further, the Ratio EC50 in data set [2] came to 1140.
On to `CCN(Cc1cccs1)C(=O)/C=C/c1ccc(C)cc1`, for which the Activity with Homo sapiens was determined as 3 µM. Also, the EC50 in data set [1] worked out at 2 nM. The Ratio EC50 in data set [2] was 2340.
For `CCc1ccc(OCC(=O)N(CC)Cc2cccs2)cc1`, in that order: 5 µM, 67 nM and 66.
For the molecule `CCN(Cc1cccs1)C(=O)COc1cccc(C)c1`, the Activity with Homo sapiens amounted to 5 µM. Besides, the EC50 in data set [1] was 97 nM. Also, the Ratio EC50 in data set [2] worked out at 42.
For `CCN(Cc1ccsc1)C(=O)COc1ccc(C)cc1`, in that order: 5 µM, 88 nM and 49.
In the case of `CCCN(Cc1cccs1)C(=O)COc1ccc(C)cc1`, the Activity with Homo sapiens was over 5 µM. Besides, the EC50 in data set [1] came to 40 nM. In addition, the Ratio EC50 in data set [2] stood at 149.
For `CCN(Cc1cccs1)C(=O)COc1cc(C)ccc1O`, in that order: 5 µM, 24 nM and 180.
For `CCN(Cc1ccco1)C(=O)COc1ccc(C)cc1`, in that order: 15 µM, 489 nM and 9.
For `Cc1ccc(OCC(=O)N(Cc2cccs2)c2cccnc2)cc1`, in that order: 15 µM, 198 nM and 24.
Turning to `C=CCN(Cc1cccs1)C(=O)COc1ccc(C)cc1`, the Activity in the data set on Homo sapiens was 5 µM. Further, the EC50 in data set [1] worked out at 20 nM. In addition, the Ratio EC50 in data set [2] was determined as 365.
In the same order, the values of `Cc1ccc(OCC(=O)N(Cc2cccs2)c2c[nH]nc2C)cc1` are over 5 µM, 0.4 nM and 10700.
In the same order, the values of `COc1ccc2oc(C(=O)N(Cc3cccs3)c3ccn[nH]3)cc2c1` are 5 µM, 1.1 nM and 30900.
In the same order, the values of `Cc1ccc(OCC(=O)N(Cc2cccs2)c2ccccc2)cc1` are 15 µM, 23 nM and 197.

The values are drawn from ChEMBL document CHEMBL4052716, “Discovery and development of a novel class of phenoxyacetyl amides as highly potent TRPM8 agonists for use as cooling agents” (Bioorg Med Chem Lett, 2017).
